Bridge positions count the residues as written; N and C are the ends. Square brackets hold non-standard residues; d marks the D form. Ends that are not written are not given here. hPhe = N[C@@H](CCc1ccccc1)C(=O)O; Cit = NC(=O)NCCC[C@H](N)C(=O)O
Legend:
[1] = system: MDA-MB-231 triple negative breast cancer cells; assay: Cell death / apoptosis induction, concentration dependent treatment (FACS); format: cell-based; settings: TNBC MDA-MB-231 cells, read-out: cell death effect IC-50
Description: Briefly, MDA-MB-231 cells are seeded in 12-well culture plates and grown to 80% confluency, followed by 72 h treatment with various concentrations of drugs in various combinations; untreated MDA-MB-231 cells are used as control. After the completion of treatment time cells are trypsinized, washed, and analyzed for dead or apoptotic cells by staining with propidium iodide (10 μg/ml) for 15 min, followed by flow cytometry (FACS Aria Ill, BD Biosciences, San Jose, CA, USA) at the Stanford FACS Facility. Data are analyzed by Flow Jo FACS analysis software (Tree Star, Ashland, OR, USA).

MDA-MB-231 tumor cells = assay: Synergistic cell death effect of AMP compounds with chemotherapy (doxorubicin, carboplatin); format: cell-based
Description: MMP2 cleavable AMP-008 was dissolved in culture medium and sonicated for 2 min each and repeated for 3 times. After the cells treated with different concentration of doxorubicin HCl (Bedford Lab, Bedford, OH), AMP compounds alone or combination of doxorubicin and AMP compounds were tested for 17 hrs incubation respectively, the cells were washed three times with PBS (pH 7.4) and incubated with Cy5.5 Annexin-V (BD Bioscience Pharmingen) according to the instructions of the manufacture. The cells were imaged using Nikon Eclipse TE-300 fluorescence microscope and counted under Ex/Em 620-680 nm nm/700-750 nm.

MGC-803 xenograft = assay: Synergy with doxorubicin in gastric cancer animal model in vivo; design: species or system athymic BALB/cA nu/nu female mice; settings: 1 mg/kg i.p. every other day for 3 weeks
[2] = system: SGC-7901 gastric cancer cells; assay: Growth suppression, apoptosis and IC50 in gastric cancer cells SGC-7901; format: cell-based; settings: Homo sapiens, read-out: IC50 (IC50 drift, DOX only or AMP-001/DOX combination); SGC-7901 cells
[3] = system: MGC-803 gastric cancer cells; assay: Growth suppression, apoptosis and IC50 in gastric cancer cells MGC-803; format: cell-based; settings: Homo sapiens, MGC-803, read-out: IC50 (IC50 drift, DOX only or AMP-001/DOX combination)
iCell Cardiomyocytes = assay: cells; settings: Homo sapiens, Cardiomyocyte, read-out: IC50 in cardiomyocytes
Description: Cardiomyocytes were derived from this engineered stem cell clone line as follows. Stem cell aggregates were formed from single cells and cultured in suspension in medium containing zebrafish bFGF (basic fibroblast growth factor) and fetal bovine serum. Upon observation of beating cardiac aggregates, cultures were subjected to blasticidin selection at 25 ug/ml to enrich the cardiomyocyte population. Cardiomyocyte aggregate cultures were maintained in Dulbecco's modified Eagle's medium (DMEM) containing 10% fetal bovine serum during cardiomyocyte selection through the duration of the culture prior to cryopreservation. At 30 to 32 days of culture the enriched, stem cell-derived cardiomyocytes were subjected to enzymatic dissociation using 0.5% trypsin to obtain single cell suspensions of purified cardiomyocytes, which were >98% cardiac troponin-T (cTNT) positive. These cells (iCell® Cardiomyocytes) were cryopreserved and stored in liquid nitrogen before delivery to Ionic Transport Assays from Cellular Dynamics International, Madison, WI.
For this study, single vials containing≈4.5×10^6 cardiomyocytes were thawed by immersing the frozen cryo-vial in a 37° C. water bath, transferring thawed cardiomyocytes into a 50 ml tube and diluting them with room temperature plating medium (iCell® Cardiomyocyte Plating Medium (iCPM), Cellular Dynamics International). […]

Compound | IC50 [1] [µM] | synergistic effect when both were administered together (MDA-MB-231 tumor cells; AMP compound and doxorubicin administered together) | cell death, synergistic (not additive) effect (MDA-MB-231 tumor cells; pretreatment with AMP compound for 6 hrs followed by 1 μM doxorubicin) | extent of tumor regression (MGC-803 xenograft) | IC50 [2] [µM] | IC50 [3] [µM] | IC50 (iCell Cardiomyocytes) [µM]
AMP-004: human beta-defensin joined to MMP2 cleavable peptide, SEQ ID NO: 003, three disulfide bonds (Ac-EGGGP[Cit]G[hPhe]YLDHYNCVSSGGQCLYSACPIFTKIQGTCYRGKAKCCK; disulfide 15-44, 22-37, 27-45) | ~5 | Synergistic effect was same | greater than 80% | – | – | – | –
COc1cccc2c1C(=O)c1c(O)c3c(c(O)c1C2=O)C[C@@](O)(C(=O)CO)C[C@@H]3O[C@H]1C[C@H](N)[C@H](O)[C@H](C)O1 [doxorubicin] | – | – | – | reasonable | 0.436 | 1.08 | 9.6

Source: US11957732B2, “Compositions and methods for sensitizing low responsive tumors to cancer therapy” (priority 2016, dated 2024)
